This is an account of results in patent publication US20120283327A1, “PHARMACEUTICAL COMPOSITIONS AND THERAPEUTIC APPLICATIONS OF A HYDROCORTISONE DERIVATIVE DESIGNATED AS DEINA” (priority 2009, published 2012).

Data set [1] has as its system bilateral joint changes. Type of data set: in vivo. As for the experimental part:
A clinical trial to evaluate tolerance and efficacy for the compound known as infusional Deina® (composition shown in Table 3) was also performed on a compassionate basis.
Twenty cases (dogs of different breed, size, body weight, sex and age).
The quantity of solution inoculated was equal to the quantity of synovial fluid aspirated and analysed.
a. Time Zero • Collection of case history and clinical examination comprising full blood counts, including LACTATES to check metabolic oxidation, • Radiography of the limb in question, • ROM (Range Of Motion), • Exploratory arthroscopy, • Exclusion of any intra-articular curettage, • Arthrocentesis with removal and morphological/cytological and biochemical examination of the synovial fluid, • Histological examination of a sample of joint cartilage, • Intra-articular inoculation of the solutions tested equal to the quantity of synovial fluid withdrawn and always in the same way (bilateral lesions): of Deina®.
A synovial examination and intra-articular injection of the solution was repeated weekly or for four/eight times, depending on the severity of the initial pathological condition.
b. End of the Treatment Cycle • Arthrocentesis with removal and morphological/cytological and biochemical examination of the synovial fluid, • Histological examination of a sample of joint cartilage, • Radiography of the joint in question, • ROM (Range Of Motion), • Blood lactic acid content, • Clinical examination and recording.

Data set [2] concerns bioptic animal samples (skin, chondrocyte, mucosal and follicular vitality). In words: Optical microscopy of cultured biopsies: cytokeratin 10 and 11 expression and haematoxylin/eosin histology. Type of data set: cell-based. As for the experimental part:
The bioptic animal samples in the investigation comprised biopsies of: • chronic atrophic cutaneous lesions due to venous stasis (base and margins), • damaged joint cartilage (chronic degenerative osteo-articular arthritis), • terminal cicatricial scalp (post-traumatic or surgical lesions), • hyperkeratosis of the oral cavity (vitamin B deficiency).
All the samples were washed three times with physiological saline and antibiotics (100 units/ml of penicillin+100 μg/ml of streptomycin+160 mg/L gentamycin, fluconazole 0.2 mg/ml) for 10 minutes at ambient temperature.
The biopsies were then sectioned into three parts (two controls, 1 and 2, and one sample, 3, to be treated for each patient) and suspended in a final volume of 25 ml of the corresponding culture solutions within 10 cm slides (Lab-Tek chamber slides, Nunc, Kamstrup, Denmark).
Two types of controls were prepared, an untreated negative control (1), that is one treated with physiological saline and antibiotics only (as described above), and a positive control (2) treated with media for ordinary cell culture for skin biopsies.
2. Positive control: Controlled bioptic specimens 2 were placed between 10 cm slides (Lab-Tek chamber slides, Nunc, Kamstrup, Denmark) in D-MEM medium supplemented with:
3. Samples-1 and -2. Bioptic samples 1 and 2 were placed between 10 cm slides (Lab-Tek chamber slides, Nunc, Kamstrup, Denmark) in medium in a solution of Deina® culture medium (double test). […]
Results relating to the expression of cytokeratin 10 and 11 and histological staining of the bioptic preparations with haematoxylin/eosin (used to display skin, chondrocyte, mucosal and follicular vitality) are shown in Table 6 (CONTROLS) and Table 7 (SAMPLES), and have been expressed using a qualitative and semi-quantitative scale. […]
Samples belonging to the type of the Sample treatment group (Deina®). Median semi-quantitative values for incubation days 7 and 60.

[3] abbreviates: Deina infusional formulation, intra-articular, weekly four/eight times, 20 dogs.

In the case of `CC1(CCC(=O)O)C(=O)CCC2C1C(O)CC1(C)C2CCC1(O)C(=O)CO` (stereo not drawn) [Deina®, 3-[3,5-Dihydroxy-3-(2-hydroxy-acetyl)-3a,6-dimethyl-7-oxo-dodecahydro-cyclo-penta[alpha]naphthalen-6-yl]-propionic acid], in data set [1] (setting [3]), the “cases in which pain and palpation fell” value was 100%; the “cases with clinical improvement” value is 70%; the “cases with increased ROM (Range of Motion)” value came to 90%. Moreover, in data set [1] (dog, in vivo), the tolerance result was “optimum tolerance”. In data set [2] (optical microscopy, Table 7 summary), the “cytokeratin 10 and 11 (typical of normal tegument and scalp tissues with vital follicles)” value is listed as “net predominance”. The “number of cells (staining with eosin and haematoxylin)” value in data set [2] (samples treated for two months, versus controls) is “net increase”. In data set [2] (short term (7 days) up to two months of culture), the “histological state of the cultured tissue” value is “trophic, vital and active”.
